# In patent publication US20230010258A1, “COMPOSITION FOR PREVENTING OR INHIBITING AXONAL DEGENERATION” (CHECKMATE THERAPEUTICS INC., priority 2019, published 2023):
# Where a name gives a salt, the structure may show the parent alone.
# What was measured:
# [1] = system: phosphorylation of JNK protein, a representative sub-regulatory marker of SARM1; details: MKN1 cells, Western blot, Hsp90 as housekeeping protein
# Procedure: Accordingly, in order to evaluate the axonal degeneration inhibitory effects of the compounds according to the present invention, the abilities of these compounds to inhibit SARM1 enzyme were analyzed. Specifically, whether phosphorylation of JNK protein, a representative sub-regulatory marker of SARM1, decreased, was evaluated by Western blot assay. A method for preparing the protein used in the Western blot assay is as follows. […] The entire cell lysate was fractionated using a centrifuge, and then only the solution containing the protein was extracted. The extracted protein was quantified by the Bradford method. The protein of the same concentration obtained through quantification was separated by SDS-polyacrylamide gel electrophoresis, and then transferred to a PVDF membrane. […] For visualization, an enhanced chemiluminescence system was used. Western blot assay was performed using JNK protein, a representative marker whose phosphorylation is regulated by SARM1, and the housekeeping protein Hsp90 was used for quantitative comparison of expression.
# optic nerve axons = experiment: Tadpole optic nerve axotomy model, delay in Wallerian degeneration (Experimental Example 3); type: in vivo, Xenopus tropicalis; details: optic nerve axotomized at stage 41, 48 hours after treatment
# Procedure: In order to verify the axon protective effect of the compound according to the present invention in the tadpole optic nerve axotomy model, an experiment was conducted according to the design shown in FIG. 13. Specifically, an in vitro fertilized Xenopus tropicalis (African frog) embryo (Nasco, Fort Atkinson, Wis. 53538, USA) is cultured to stage 27, and then a plasmid DNA expressing Enhanced Green Fluorescence Protein (EGFP) is delivered into the retinal progenitor cells of one eye by an electroporation technique. After culturing to stage 41, the axons of the retinal ganglion cells expressing the green fluorescent protein reach the optic tectum of the contralateral brain hemisphere, and this axon bundle is referred to as the optic nerve. When the optic nerve is axotomized at stage 41, Wallerian degeneration occurs in which axons distal from the cell body degenerate by fragmentation over about 72 hours. […] Wallerian degeneration of the Xenopus optic nerve occur in a stereotypical pattern at 24 hours, 48 hours and 72 hours after axotomy, and the degree of delay in Wallerian degeneration was quantified as percentage by comparing the degree of Wallerian degeneration in the drug-treated group with this pattern.
# axonal degeneration = details: cited from earlier work
# [2] = system: retinal ganglion cell axons; experiment: Tadpole optic nerve axotomy model, axon survival score (Experimental Example 4); type: in vivo, Xenopus tropicalis; details: axotomy at stage 43, evaluated 48 hours after axotomy, control DMSO
# Procedure: In order to verify the axon protective effect of the compound according to the present invention in the tadpole optic nerve axotomy model, an experiment was conducted in the same manner as in Experimental Example 3. Specifically, GFP-expressing DNA was delivered into one retina of a Xenopus tropicalis tadpole at stage 27 (before retinal development) by electroporation. At stage 43 (the time when the connection between the retina and the visual center of the brain is finished), axons of the epectroporated retina were axotomized, and the tissue was fixed at 24-hour intervals, followed by extraction of the brain. Next, the ventral midline of the brain was excised and unfolded, and then the GFP signal in the contra-lateral brain hemisphere was imaged with a confocal microscope (LSM700, Carl Zeiss, 20×, z-step 3 μm). Thereby, it was possible to observe retinal ganglion cell axons located along the optic tract extending from the optic chiasm to the optic tectum. […] Axonal degeneration could be quantified because the continuous GFP signal disappeared along the optic tract over time after axotomy. […] The degree of inhibition of axonal degeneration by the drug was evaluated 48 hours after axotomy. […] The percentage of healthy axons in the drug group relative to the control group taken as 100% was calculated and used as the axon survival score (0 to 100%).
compound,measurement,setting,value
"O=C(NCc1ccc(-c2nc3ccc(Cl)cc3o2)cc1)c1cccnc1 [A4266, N-(4-(6-chlorobenzo[d]oxazol-2-yl)benzyl)nicotinamide]",JNK phosphorylation,[1],had the effect of inhibiting JNK phosphorylation
CC(C)(O)CS(=O)(=O)Nc1ccc2c(c1)CCN(C(=O)COc1cccnc1)C2 [LSN 3154567],axon protective effect (degree of delay in Wallerian degeneration),optic nerve axons,did not exhibit a significant axon protective effect
Nc1ccc(/C=C/C(=O)NCc2cc3cc(-c4ccc(C(=O)N5CCC(F)(F)CC5)cc4)cc(-c4ccc(F)cc4)c3o2)cn1 [KPT9274],axon protective effect (degree of delay in Wallerian degeneration),optic nerve axons,did not exhibit a significant axon protective effect
O=C(/C=C/c1cccnc1)NCCCCC1CCN(C(=O)c2ccccc2)CC1 [FK866],axonal degeneration,axonal degeneration,effect of partially inhibiting axonal degeneration
"CS(=O)(=O)c1ccc2oc(-c3ccc(CNC(=O)c4cccnc4)cc3)nc2c1 [A4510H, N-(4-(5-(methylsulfonyl)benzo[d]oxazol-2-yl)benzyl)nicotinamide hydrochloride]",axon protective effect (axon survival score),[2],exhibited an excellent axon protective effect
